We go through 20 compounds from patent publication US10550105B2 (Ribon Therapeutics Inc., priority 2018, dated 2020).

The structures appear in SMILES notation. Where only a bound is given, the exact number is not on record here.

The target in the assay is PARP7 (Homo sapiens (Human), UniProt Q7Z3E1). The assay can be described thus: Enzymatic assay for inhibition of PARP7: TR-FRET displacement of biotinylated Probe A from the TIPARP active site. Format: binding. The settings on record: Table A-1. In short, it runs like this:
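TR-FRET, ex 320 nm / em 615 and 665 nm. Signal ratio reflects complex formation.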
On the technique in general: TR-FRET usually uses a lanthanide donor and a delayed reading to cut background.

Sequence of PARP7 (Q7Z3E1 whole entry): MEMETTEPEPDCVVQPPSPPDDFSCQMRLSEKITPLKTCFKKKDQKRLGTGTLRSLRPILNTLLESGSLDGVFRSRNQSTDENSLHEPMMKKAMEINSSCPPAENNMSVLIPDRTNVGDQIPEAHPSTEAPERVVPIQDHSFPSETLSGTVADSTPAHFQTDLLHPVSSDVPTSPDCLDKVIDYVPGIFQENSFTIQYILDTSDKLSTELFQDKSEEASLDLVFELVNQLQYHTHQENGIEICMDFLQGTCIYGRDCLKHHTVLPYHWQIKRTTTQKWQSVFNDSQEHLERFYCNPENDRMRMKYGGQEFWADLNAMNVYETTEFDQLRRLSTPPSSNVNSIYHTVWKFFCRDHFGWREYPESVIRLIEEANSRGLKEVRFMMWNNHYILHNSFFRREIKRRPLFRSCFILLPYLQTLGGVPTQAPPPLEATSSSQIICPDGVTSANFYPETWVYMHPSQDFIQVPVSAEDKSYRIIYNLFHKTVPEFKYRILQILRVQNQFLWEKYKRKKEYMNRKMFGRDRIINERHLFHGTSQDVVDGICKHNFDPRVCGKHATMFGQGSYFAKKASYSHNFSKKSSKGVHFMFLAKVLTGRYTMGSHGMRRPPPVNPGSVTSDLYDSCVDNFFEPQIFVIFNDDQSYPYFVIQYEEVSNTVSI

Usually IC50 stands for the midpoint of a concentration-inhibition curve. On to `N#Cc1ccc(N2CCN(C(=O)CCOC[C@@H]3CCCN3c3cn[nH]c(=O)c3Cl)CC2)nc1` [Example 468, (S)-6-(4-(3-((1-(5-Chloro-6-oxo-1,6-dihydropyridazin-4-yl)pyrrolidin-2-yl)methoxy)propanoyl)piperazin-1-yl)nicotinonitrile], for which the IC50 was less than 100 nM.

`N#Cc1ccc(N2CCN(C(=O)c3cccc(OCC4CCN(c5cn[nH]c(=O)c5C(F)(F)F)C4)c3)CC2)nc1` (centres unmarked) [Example 469, 6-(4-(3-((1-(6-Oxo-5-(trifluoromethyl)-1,6-dihydropyridazin-4-yl)pyrrolidin-3-yl)methoxy)benzoyl)piperazin-1-yl)nicotinonitrile] returned an IC50 of less than 100 nM. In turn, `N#Cc1ccc(N2CCN(C(=O)c3cccc(OCCOC[C@@H]4CCN(c5cn[nH]c(=O)c5C(F)(F)F)C4)c3)CC2)nc1` [Example 470, (R)-6-(4-(3-(2-((1-(6-Oxo-5-(trifluoromethyl)-1,6-dihydropyridazin-4-yl)pyrrolidin-3-yl)methoxy)ethoxy)benzoyl)piperazin-1-yl)nicotinonitrile] came in with an IC50 of less than 100 nM.

Consider `N#Cc1ccc(N2CCN(C(=O)c3cccc(OCCOC[C@H]4CCN(c5cn[nH]c(=O)c5C(F)(F)F)C4)c3)CC2)nc1` [Example 471, (S)-6-(4-(3-(2-((1-(6-oxo-5-(trifluoromethyl)-1,6-dihydropyridazin-4-yl)pyrrolidin-3-yl)methoxy)ethoxy)benzoyl)piperazin-1-yl)nicotinonitrile], for which the half-maximal inhibitory concentration (IC50) is less than 100 nM.

Turning to `C#CCOC[C@@H]1CCCN1c1cn[nH]c(=O)c1C(F)(F)F` [Example 472, (S)-5-(2-((prop-2-yn-1-yloxy)methyl)pyrrolidin-1-yl)-4-(trifluoromethyl)pyridazin-3(2H)-one], the IC50 is not below 1000 nM. Consider `CC1CN(c2ccc(C#N)cn2)CCN1C(=O)CCOC[C@@H]1CCCN1c1cn[nH]c(=O)c1C(F)(F)F` (stereo partly drawn) [Example 473, 6-(3 -Methyl-4-(3-(((S)-1-(6-oxo-5-(trifluoromethyl)-1,6-dihydropyridazin-4-yl)pyrrolidin-2-yl)methoxy)propanoyl)piperazin-1-yl)nicotinonitrile], for which the IC50 is less than 100 nM. On to `N#Cc1cnc(N2CCN(C(=O)CCOC[C@@H]3CCCN3c3cn[nH]c(=O)c3C(F)(F)F)CC2)cn1` [Example 474, (S)-5-(4-(3-((1-(6-Oxo-5-(trifluoromethyl)-1,6-dihydropyridazin-4-yl)pyrrolidin-2-yl)methoxy)propanoyl)piperazin-1-yl)pyrazine-2-carbonitrile], for which the IC50 was less than 100 nM. `N#Cc1ccc(N2CCN(C(=O)CCOC[C@@H]3CCCN3c3cn[nH]c(=O)c3C(F)(F)F)CC2)cn1` [Example 475, (S)-5-(4-(3-((1-(6-Oxo-5-(trifluoromethyl)-1,6-dihydropyridazin-4-yl)pyrrolidin-2-yl)methoxy)propanoyl)piperazin-1-yl)picolinonitrile]: the IC50 was less than 100 nM. In turn, `N#Cc1ncc(N2CCN(C(=O)CCOC[C@@H]3CCCN3c3cn[nH]c(=O)c3C(F)(F)F)CC2)cn1` [Example 476, (S)-5-(4-(3-((1-(6-Oxo-5-(trifluoromethyl)-1,6-dihydropyridazin-4-yl)pyrrolidin-2-yl)methoxy)propanoyl)piperazin-1-yl)pyrimidine-2-carbonitrile] gave an IC50 of 100 to 1000 nM. For `N#Cc1ccc(N2CCN(C(=O)c3ccc(OCC4CCN(c5cn[nH]c(=O)c5C(F)(F)F)C4)cc3)CC2)nc1` (centres unmarked) [Example 477, 6-(4-(4-((1-(6-Oxo-5-(trifluoromethyl)-1,6-dihydropyridazin-4-yl)pyrrolidin-3-yl)methoxy)benzoyl)piperazin-1-yl)nicotinonitrile], the IC50 is less than 100 nM.

In the case of `N#Cc1ccc(N2CCN(C(=O)COCCOCC3CCN(c4cn[nH]c(=O)c4C(F)(F)F)C3)CC2)nc1` (centres unmarked) [Example 478, 6-(4-(2-(2-((1-(6-Oxo-5-(trifluoromethyl)-1,6-dihydropyridazin-4-yl)pyrrolidin-3-yl)methoxy)ethoxy)acetyl)piperazin-1-yl)nicotinonitrile], the IC50 is 100 to 1000 nM. As to `N#Cc1ccc(N2CCN(C(=O)C34C5C6C3C3C4C5C63COC[C@@H]3CCCN3c3cn[nH]c(=O)c3C(F)(F)F)CC2)nc1` (stereo partly drawn) [Example 479, (S)-6-(4-(4-(((1-(6-Oxo-5-(trifluoromethyl)-1,6-dihydropyridazin-4-yl)pyrrolidin-2-yl)methoxy)methyl)cubane-1-carbonyl)piperazin-1-yl)nicotinonitrile], the IC50 was 100 to 1000 nM. In turn, `Cc1c(N2CCC[C@H]2COCCC(=O)N2CCN(c3ccc(C#N)cn3)CC2)cn[nH]c1=O` [Example 480, (S)-6-(4-(3-((1-(5-Methyl-6-oxo-1,6-dihydropyridazin-4-yl)pyrrolidin-2-yl)methoxy)propanoyl)piperazin-1-yl)nicotinonitrile] registered an IC50 of less than 100 nM.

`O=C(CCOC[C@@H]1CCCN1c1cn[nH]c(=O)c1C(F)(F)F)N1CCN(c2ccc(Cl)cn2)CC1` [Example 481, (S)-5-(2-((3-(4-(5-Chloropyridin-2-yl)piperazin-1-yl)-3-oxopropoxy)methyl)pyrrolidin-1-yl)-4-(trifluoromethyl)pyridazin-3(2H)-one] gave an IC50 of less than 100 nM. Take `O=C(CCOC[C@@H]1CCCN1c1cn[nH]c(=O)c1C(F)(F)F)N1CCN(c2ncc(Cl)cn2)CC1` [Example 482, (S)-5-(2-((3-(4-(5-Chloropyrimidin-2-yl)piperazin-1-yl)-3-oxopropoxy)methyl)pyrrolidin-1-yl)-4-(trifluoromethyl)pyridazin-3(2H)-one]: the IC50 is less than 100 nM.

Regarding `CS(=O)(=O)c1ccc(N2CCN(C(=O)CCOC[C@@H]3CCCN3c3cn[nH]c(=O)c3C(F)(F)F)CC2)nc1` [Example 483, (S)-5-(2-((3-(4-(5-(Methylsulfonyl)pyridin-2-yl)piperazin-1-yl)-3-oxopropoxy)methyl)pyrrolidin-1-yl)-4-(trifluoromethyl)pyridazin-3(2H)-one], the IC50 was less than 100 nM.

In turn, `CC1(C)C[C@@H](COCCC(=O)N2CCN(c3ccc(C#N)cn3)CC2)N(c2cn[nH]c(=O)c2C(F)(F)F)C1` [Example 484, (S)-6-(4-(3-((4,4-Dimethyl-1-(6-oxo-5-(trifluoromethyl)-1,6-dihydropyridazin-4-yl)pyrrolidin-2-yl)methoxy)propanoyl)piperazin-1-yl)nicotinonitrile] yielded an IC50 of less than 100 nM. `N#Cc1ccc(N2CCN(C(=O)CCOC[C@@H]3C[C@H](N)CN3c3cn[nH]c(=O)c3C(F)(F)F)CC2)nc1` [Example 485, 6-(4-(3-(((2S,4S)-4-Amino-1-(6-oxo-5-(trifluoromethyl)-1,6-dihydropyridazin-4-yl)pyrrolidin-2-yl)methoxy)propanoyl)piperazin-1-yl)nicotinonitrile] returned an IC50 of less than 100 nM. `N#Cc1ccc(N2CCN(C(=O)CCOC[C@@H]3C[C@@H](N)CN3c3cn[nH]c(=O)c3C(F)(F)F)CC2)nc1` [Example 486, 6-(4-(3-(((2S,4R)-4-Amino-1-(6-oxo-5-(trifluoromethyl)-1,6-dihydropyridazin-4-yl)pyrrolidin-2-yl)methoxy)propanoyl)piperazin-1-yl)nicotinonitrile] came in with an IC50 of less than 100 nM.

The compound `N#Cc1ccc(N2CCN(C(=O)CCO[C@H]3C[C@@H](CN)N(c4cn[nH]c(=O)c4C(F)(F)F)C3)CC2)nc1` [Example 487, 6-(4-(3-(((3S,5S)-5-(Aminomethyl)-1-(6-oxo-5-(trifluoromethyl)-1,6-dihydropyridazin-4-yl)pyrrolidin-3-yl)oxy)propanoyl)piperazin-1-yl)nicotinonitrile] returned a concentration for half-maximal inhibition (IC50) of 100 to 1000 nM.
